Reference: BindingDB's records for doi:10.3109/14756366.2012.668539 (Federal University of São Paulo, 2013)

Molecular target: T1, Papain (Carica papaya, UniProt P00784)
T1 sequence (P00784 whole entry): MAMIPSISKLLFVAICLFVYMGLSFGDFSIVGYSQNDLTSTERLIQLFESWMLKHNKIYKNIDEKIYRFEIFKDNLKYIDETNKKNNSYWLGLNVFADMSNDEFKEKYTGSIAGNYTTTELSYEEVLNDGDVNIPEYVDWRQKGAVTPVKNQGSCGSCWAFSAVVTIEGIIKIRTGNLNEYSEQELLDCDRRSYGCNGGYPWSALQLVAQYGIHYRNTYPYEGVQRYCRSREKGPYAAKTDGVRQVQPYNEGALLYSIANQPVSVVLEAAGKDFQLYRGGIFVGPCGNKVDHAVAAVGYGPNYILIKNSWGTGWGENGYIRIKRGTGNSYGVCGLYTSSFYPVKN
Assay: Kinetic Assay
Method: To characterize the type and extent inhibition of papain by fukugetin, papain (0.04 nM) was incubated with four concentrations of fukugetin (1.5, 3, 6 and 12μM). For cruzain, enzyme concentration was 12 nM and inhibitor concentrations varied from 1 μM to 10 μM. Analysis of enzyme kinetic data was carried out using the Lineweaver-Burk plot30 in Grafit 5.0 software. Hydrolytic activity was measured […], mixing fukugetin and enzymes by addition growingconcentrations of Cbz-Phe-Arg-MCA (0.5-22 μM).

Ki: 13.4 µM
SMILES: O=C1c2c(O)cc(O)cc2OC(c2ccc(O)cc2)C1c1c(O)cc(O)c2c(=O)cc(-c3ccc(O)c(O)c3)oc12 (stereo unspecified) [Fukugetin]
